The target of assay [1] is T1, 5-lipoxygenase (Rattus norvegicus, UniProt P12527).
T1 construct: endogenous in cells; host or cells: RBL-1 (rat basophilic leukemia) cells, 10,000 xg supernatant of the homogenate
T1 sequence (P12527 1-673): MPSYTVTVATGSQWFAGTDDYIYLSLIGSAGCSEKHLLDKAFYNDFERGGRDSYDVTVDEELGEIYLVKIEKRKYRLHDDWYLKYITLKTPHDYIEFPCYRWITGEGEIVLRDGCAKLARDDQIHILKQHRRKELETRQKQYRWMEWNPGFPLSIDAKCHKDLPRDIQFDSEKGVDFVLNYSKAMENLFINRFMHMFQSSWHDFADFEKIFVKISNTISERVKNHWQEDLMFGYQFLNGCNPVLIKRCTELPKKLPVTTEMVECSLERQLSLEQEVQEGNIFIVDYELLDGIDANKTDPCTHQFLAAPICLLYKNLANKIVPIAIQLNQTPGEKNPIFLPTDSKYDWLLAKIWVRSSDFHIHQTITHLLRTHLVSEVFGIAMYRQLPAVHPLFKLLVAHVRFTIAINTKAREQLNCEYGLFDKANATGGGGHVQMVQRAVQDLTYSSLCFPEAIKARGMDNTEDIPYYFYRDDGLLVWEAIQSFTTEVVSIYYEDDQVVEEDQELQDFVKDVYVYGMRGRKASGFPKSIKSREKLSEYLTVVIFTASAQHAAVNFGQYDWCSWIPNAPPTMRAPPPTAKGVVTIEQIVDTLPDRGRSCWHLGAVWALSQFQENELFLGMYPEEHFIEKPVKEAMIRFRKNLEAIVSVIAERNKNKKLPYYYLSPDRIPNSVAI
The assay is described as follows: 5-lipoxygenase inhibition in vitro, RBL-1 cell supernatant as enzyme source. Format: biochemical. The settings on record: 10,000 xg supernatant of homogenized rat basophilic leukemia (RBL-1) cells, pH 7.0 phosphate buffer, 14C-arachidonic acid, 37°, two minutes. How it is done:
The test method is a modification of the procedure developed by Jakschik et al. (Prostaglandins (1978) 16. 733; Biochem. Biophys. Res. Commun. (1980) 95. 103; Biochem. Biophys, Res. Commun. (1981) 102 624).
The 10,000 xg supernatant from homogenized RBL-1 cells was incubated with test compound in a pH 7.0 phosphate buffer for about five minutes. ^14 C-arachidonic acid was added to initiate the reaction, which was allowed to continue at 37° for two minutes. The reaction was stopped by freezing in a dry ice/ethanol slurry and the 5-lipoxygenase products were separated from the substrate on silica gel columns. The amount of individual lipoxygenase products produced was determined and the percent inhibition calculated.

Assay [2] relates to arachidonic acid-induced ear edema. Description: arachidonic acid-induced ear edema in mice. Format: in vivo. The settings on record: Mus musculus, 1 h; 100 μg/ear topical in acetone, CF1 mice, 1 mg arachidonic acid, one hour after challenge; >30% significant, 50% and above good to excellent. As for the experimental part: This assay indicates a specific use in the treatment of skin diseases such as psoriasis. This assay also implies a reduction in leukotrienes caused by the compounds of the invention and indicates the use of these compounds in other diseases where the production of leukotrienes is involved in the pathological process. The assay is a modification of the procedure described by Young et al. (J. Invest. Dermatol. (1983) 80. 48).
Arachidonic acid (1 mg) was applied as an acetone solution to the inner surface of the pinna of CF1 mice. Test compound dissolved in acetone was applied to the ear just prior to the arachidonic acid challenge. One hour after challenge, 6 mm disks were removed from the ear with a biopsy punch and the weight determined. The results were determined as a percent inhibition of the swelling which occurred in the absence of the test compound.
Significant inhibitory activity is considered to be greater than 30% inhibition. 50% and above is considered to be good to excellent activity.

Each structure is given as a SMILES string.

As for `CC(=O)Oc1c(Cc2ccccc2)ccc2ccccc12` [Example 1, 1-acetoxy-2-phenylmethylnaphthalene], inhibition in assay [1] was half-maximal at 140 nM (IC50). Moreover, the inhibition in vivo – broadly, the share of the control response that was lost under treatment – at 100 µg/ear in assay [2] turned out to be 66%.

For the compound `CCOC(=O)Oc1c(Cc2ccccc2)ccc2ccccc12` [Example 2, 1-ethoxycarbonyloxy-2-phenylmethyl naphthalene], the IC50 (usually the point on the concentration scale where inhibition reaches its midpoint) in assay [1] is 1200 nM. In assay [2], this compound displayed an inhibition in vivo at 100 µg/ear of 50%.

Consider `O=C(O)CCC(=O)Oc1c(Cc2ccccc2)ccc2ccccc12` [Example 3, 1-(3-carboxvpropionvloxv)-2-phenylmethvlnaphthalene], for which, in assay [1], the IC50 amounted to 530 nM.

On to `CN(C)CCCC(=O)Oc1c(Cc2ccccc2)ccc2ccccc12` [Example 4, 1-(4-demethylamine-butyryloxy)-2-phenylmethvlnaohthalene hvdrochloride], for which half-maximal inhibition in assay [1] (IC50) was put at 520 nM. Further, in assay [2], the inhibition in vivo at 100 µg/ear stood at 44%.

Regarding `CC(=O)Oc1c(Cc2ccccc2F)ccc2ccccc12` [Example 7], the inhibition in vivo at 100 µg/ear in assay [2] is 72%.

Regarding `CC(=O)Oc1c(Cc2cccc(F)c2)ccc2ccccc12` [Example 8], half-maximal inhibition in assay [1] (IC50) was put at 62 nM.

`COc1ccc(Cc2ccc3ccccc3c2OC(C)=O)cc1` [Example 10] had an IC50 in assay [1] of 90 nM. Also, in assay [2], the inhibition in vivo at 100 µg/ear was 53%.

As for `COc1ccc(Cc2ccc3ccccc3c2OC(C)=O)cc1OC` [Example 11], the IC50 in assay [1] stood at 580 nM.

On to `CC(=O)Oc1ccc(Cc2ccc3ccccc3c2OC(C)=O)cc1OC(C)=O` [Example 12, 1-acetoxy-2-(3,4-diaacetoxyphenylmethyl)naphthalene], for which, in assay [1], half-maximal inhibition (IC50) required 1600 nM. For the same compound, in assay [2], the inhibition in vivo at 100 µg/ear came out at 35%.

Compound `CC(=O)Oc1c(Cc2ccc3c(c2)OCO3)ccc2ccccc12` [Example 14] returned an IC50 in assay [1] of 190 nM.

Compound `CC(=O)Oc1c(Cc2ccc(N(C)C)cc2)ccc2ccccc12` [Example 15, 1-acetoxy-2-(4-dimethylaminophenylmethyl)naphthalene] came in with an IC50 in assay [1] of 810 nM. In assay [2], this compound registered an inhibition in vivo at 100 µg/ear of 49%.

Take `CC(=O)Oc1c(Cc2cccs2)ccc2ccccc12` [Example 17]: inhibition in assay [1] was half-maximal at 70 nM (IC50). This compound also showed an inhibition in vivo at 100 µg/ear in assay [2] of 52%.

(Values after patent US5006555A, “Esters of 2-arylmethyl-1-naphthol derivatives as 5-lipoxygenase inhibitors” (E. I. Du Pont de Nemours and Company, priority 1990, dated 1991).)
